In ChEMBL document CHEMBL1139017, “Synthesis and biological activity of (+)-hedychilactone A and its analogs from (+)-sclareolide” (Bioorg Med Chem Lett, 2006):
Values after ≈ are worked out from the molar mass of the structure shown.

Assays:
[1] = system: U-87 MG; assay: Cytotoxicity against U87 cancer cell line; format: functional, cell-based, U-87MG ATCC; conditions: Homo sapiens
[2] = system: U373 MG; assay: Cytotoxicity against U373 cancer cell line; format: functional, cell-based, U-373MG ATCC; conditions: Homo sapiens
[3] = system: SiHa; assay: Cytotoxicity against SiHa cancer cell line; format: functional, cell-based; conditions: Homo sapiens
[4] = system: SK-OV-3; assay: Cytotoxicity against sk-ov-3 cancer cell line; format: functional, cell-based; conditions: Homo sapiens
[5] = system: B16; assay: Cytotoxicity against B16 cancer cell line; format: functional, cell-based; conditions: Mus musculus
[6] = system: HUVEC; assay: Antiangiogenic activity against HUVEC cells; format: functional, cell-based; conditions: Homo sapiens
[7] = system: HUVEC; assay: Inhibition of NO production in HUVEC cells; format: functional, cell-based; conditions: Homo sapiens

Compound | IC50 [1] [µg/mL] | IC50 [2] [µg/mL] | IC50 [3] [µg/mL] | IC50 [4] [µg/mL] | IC50 [5] [µg/mL] | IC50 [6] [µg/mL] | IC50 [7] [µg/mL]
C=C1C(=O)C[C@H]2C(C)(C)CCC[C@]2(C)[C@H]1C/C=C1\CCOC1=O | 1.7 (≈ 5.37 µM) | 3.7 (≈ 11.7 µM) | 7 (≈ 22.1 µM) | 0.9 (≈ 2.84 µM) | 3.4 (≈ 10.7 µM) | 1.2 (≈ 3.79 µM) | 0.7 (≈ 2.21 µM)
CC1=CC[C@H]2C(C)(C)CCC[C@]2(C)[C@H]1C/C=C1/CCOC1=O | > 50 | > 50 | > 50 | > 50 | > 50 | 4.3 (≈ 14.2 µM) | > 25
C=C1CC[C@H]2C(C)(C)CCC[C@]2(C)[C@H]1C/C=C1/CCOC1=O | > 50 | 40.4 (≈ 134 µM) | > 50 | 4.3 (≈ 14.2 µM) | 17.6 (≈ 58.2 µM) | 2.2 (≈ 7.27 µM) | 4.5 (≈ 14.9 µM)
C=C1[C@@H](O)C[C@H]2C(C)(C)CCC[C@]2(C)[C@H]1C/C=C1\CCOC1=O [HEDYCHILACTONE A] | 36.8 (≈ 116 µM) | > 50 | > 50 | 8.7 (≈ 27.3 µM) | > 50 | 12.6 (≈ 39.6 µM) | 11 (≈ 34.5 µM)
CC(=O)O[C@H]1C(=O)[C@@]2(C)[C@H]([C@H](OC(=O)c3ccccc3)[C@]3(O)C[C@H](OC(=O)[C@H](O)[C@@H](NC(=O)c4ccccc4)c4ccccc4)C(C)=C1C3(C)C)[C@]1(OC(C)=O)CO[C@@H]1C[C@@H]2O [PACLITAXEL] | 3.2 (≈ 3.75 µM) |  | 1.3 (≈ 1.52 µM) | 8.7 (≈ 10.2 µM) | < 0.1 | 0.3 (≈ 0.351 µM) | 
CC1=CC[C@H]2C(C)(C)CCC[C@]2(C)[C@H]1CC=O | 11.7 (≈ 49.9 µM) | 20.6 (≈ 87.9 µM) | 20.9 (≈ 89.2 µM) | 23.5 (≈ 100 µM) | 21.8 (≈ 93 µM) | 4.8 (≈ 20.5 µM) | 6 (≈ 25.6 µM)
C=C1CC[C@H]2C(C)(C)CCC[C@]2(C)[C@H]1CC=O | 4.1 (≈ 17.5 µM) | 7 (≈ 29.9 µM) | 14.5 (≈ 61.9 µM) | 3.1 (≈ 13.2 µM) | 4 (≈ 17.1 µM) | 2.9 (≈ 12.4 µM) | > 25
CC1=CC[C@H]2C(C)(C)CCC[C@]2(C)[C@H]1C/C=C1\CCOC1=O | 9.2 (≈ 30.4 µM) | 4.7 (≈ 15.5 µM) | 17 (≈ 56.2 µM) | 6 (≈ 19.8 µM) | 9.1 (≈ 30.1 µM) | 2.6 (≈ 8.6 µM) | 18 (≈ 59.5 µM)
C=C1[C@H](O)C[C@H]2C(C)(C)CCC[C@]2(C)[C@H]1C/C=C1/CCOC1=O | > 50 | > 50 | > 50 | 10.1 (≈ 31.7 µM) | > 50 | 12.4 (≈ 38.9 µM) | 8 (≈ 25.1 µM)
C=C1[C@H](O)C[C@H]2C(C)(C)CCC[C@]2(C)[C@H]1C/C=C1\CCOC1=O | 12.7 (≈ 39.9 µM) | 14.9 (≈ 46.8 µM) | 32 (≈ 100 µM) | 12.4 (≈ 38.9 µM) | 16.7 (≈ 52.4 µM) | 6.9 (≈ 21.7 µM) | 13.2 (≈ 41.4 µM)
C=C1[C@@H](O)C[C@H]2C(C)(C)CCC[C@]2(C)[C@H]1C/C=C1/CCOC1=O | > 50 | 15.7 (≈ 49.3 µM) | 31.7 (≈ 99.5 µM) | 5.3 (≈ 16.6 µM) | > 50 | 13.8 (≈ 43.3 µM) | 11.2 (≈ 35.2 µM)
C=C1CC[C@H]2C(C)(C)CCC[C@]2(C)[C@H]1C/C=C1\CCOC1=O | 5 (≈ 16.5 µM) | 15.1 (≈ 49.9 µM) | 20.2 (≈ 66.8 µM) | 2 (≈ 6.61 µM) | 17.6 (≈ 58.2 µM) | 1.7 (≈ 5.62 µM) | 5 (≈ 16.5 µM)
C=C1C(=O)C[C@H]2C(C)(C)CCC[C@]2(C)[C@H]1C/C=C1/CCOC1=O | 1.43 (≈ 4.52 µM) | 0.6 (≈ 1.9 µM) | 3.4 (≈ 10.7 µM) | 0.8 (≈ 2.53 µM) | 1.5 (≈ 4.74 µM) | 0.6 (≈ 1.9 µM) | 0.9 (≈ 2.84 µM)
